Assay results: patent US20030166932A1 (priority 2002, published 2003)

Assays:
[1] = biological target: T1, RARα (Homo sapiens, UniProt P10276); assay: chimeric receptor transactivation assay; type: cell-based
T1 sequence (P10276 1-462): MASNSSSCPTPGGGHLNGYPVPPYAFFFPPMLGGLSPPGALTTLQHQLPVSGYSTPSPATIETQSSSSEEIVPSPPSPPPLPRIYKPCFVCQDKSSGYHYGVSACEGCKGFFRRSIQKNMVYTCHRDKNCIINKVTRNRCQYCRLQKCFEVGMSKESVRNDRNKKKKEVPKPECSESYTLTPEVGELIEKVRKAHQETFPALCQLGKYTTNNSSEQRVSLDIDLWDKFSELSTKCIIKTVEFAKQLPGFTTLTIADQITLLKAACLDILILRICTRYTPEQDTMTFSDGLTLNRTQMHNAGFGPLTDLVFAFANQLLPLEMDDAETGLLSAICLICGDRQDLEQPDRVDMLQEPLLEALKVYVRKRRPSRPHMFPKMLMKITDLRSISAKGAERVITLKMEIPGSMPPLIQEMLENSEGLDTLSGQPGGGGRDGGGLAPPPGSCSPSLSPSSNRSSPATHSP
From the text: The specification of U.S. Pat. No. 5,455,265 is hereby expressly incorporated by reference.

[2] = biological target: T2, RXRβ (UniProt P28704); assay: holoreceptor transactivation assay; type: cell-based
T2 sequence (P28704 1-520): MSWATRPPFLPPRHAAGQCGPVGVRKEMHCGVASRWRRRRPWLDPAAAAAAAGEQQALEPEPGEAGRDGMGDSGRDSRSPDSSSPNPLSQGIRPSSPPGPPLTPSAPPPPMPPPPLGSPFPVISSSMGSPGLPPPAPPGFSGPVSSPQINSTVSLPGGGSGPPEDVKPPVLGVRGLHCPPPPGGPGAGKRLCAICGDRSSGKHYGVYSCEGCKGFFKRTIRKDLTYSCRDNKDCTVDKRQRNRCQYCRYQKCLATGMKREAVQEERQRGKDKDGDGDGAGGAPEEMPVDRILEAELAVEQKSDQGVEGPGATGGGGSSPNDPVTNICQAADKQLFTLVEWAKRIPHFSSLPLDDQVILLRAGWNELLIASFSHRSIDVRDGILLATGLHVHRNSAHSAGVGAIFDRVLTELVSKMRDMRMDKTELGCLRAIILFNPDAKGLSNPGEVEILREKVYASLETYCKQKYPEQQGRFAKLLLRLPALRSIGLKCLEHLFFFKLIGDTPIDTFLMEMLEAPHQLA
From the text: (§1) The results obtained in this assay are expressed in EC50 numbers, as they are also in the chimeric receptor transactivation assay. The results of ligand binding assay are expressed in Kd numbers.
(§2) Particularly, the transactivation data pertaining to RAR receptors were obtained in the chimeric assay, and the data pertaining to transactivation of RXR receptors were obtained in the holoreceptor transactivation assay.

[3] = biological target: T3, RXRγ (UniProt P28705); assay: holoreceptor transactivation assay; type: cell-based
T3 sequence (P28705 1-463): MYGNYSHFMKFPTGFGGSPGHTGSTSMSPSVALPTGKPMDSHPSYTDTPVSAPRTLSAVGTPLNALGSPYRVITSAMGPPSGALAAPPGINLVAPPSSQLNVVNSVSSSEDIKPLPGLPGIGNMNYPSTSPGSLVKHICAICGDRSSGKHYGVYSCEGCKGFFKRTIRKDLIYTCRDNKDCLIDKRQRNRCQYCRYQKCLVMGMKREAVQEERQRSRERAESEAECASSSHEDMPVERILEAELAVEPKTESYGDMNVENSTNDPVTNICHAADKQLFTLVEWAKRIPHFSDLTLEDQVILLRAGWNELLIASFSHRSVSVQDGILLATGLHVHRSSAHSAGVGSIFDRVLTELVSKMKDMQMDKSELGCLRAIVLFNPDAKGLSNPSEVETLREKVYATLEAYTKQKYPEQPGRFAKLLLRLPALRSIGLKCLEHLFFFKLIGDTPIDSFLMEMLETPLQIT
From the text: as §1, §2

[4] = biological target: T4, RARβ (Homo sapiens, UniProt P10826); assay: ligand binding assay; settings: read-out: RAR Bind. Ki (nM) β
T4 sequence (P10826 1-455): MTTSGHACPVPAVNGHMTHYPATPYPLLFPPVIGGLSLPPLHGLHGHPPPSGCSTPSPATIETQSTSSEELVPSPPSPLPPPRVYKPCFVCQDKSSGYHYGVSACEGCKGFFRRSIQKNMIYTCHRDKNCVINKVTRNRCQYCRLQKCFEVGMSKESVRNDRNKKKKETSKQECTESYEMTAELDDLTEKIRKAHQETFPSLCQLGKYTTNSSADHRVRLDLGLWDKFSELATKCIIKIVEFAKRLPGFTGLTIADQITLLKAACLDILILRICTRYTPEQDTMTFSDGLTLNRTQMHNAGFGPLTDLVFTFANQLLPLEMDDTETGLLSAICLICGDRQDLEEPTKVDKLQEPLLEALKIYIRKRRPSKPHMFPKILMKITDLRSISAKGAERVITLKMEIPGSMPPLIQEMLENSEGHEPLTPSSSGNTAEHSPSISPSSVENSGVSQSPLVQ
From the text: as §1, §2

[5] = biological target: T5, RARγ (Homo sapiens, UniProt P13631); assay: ligand binding assay; settings: read-out: RAR Bind. Ki (nM) Y
T5 sequence (P13631 1-454): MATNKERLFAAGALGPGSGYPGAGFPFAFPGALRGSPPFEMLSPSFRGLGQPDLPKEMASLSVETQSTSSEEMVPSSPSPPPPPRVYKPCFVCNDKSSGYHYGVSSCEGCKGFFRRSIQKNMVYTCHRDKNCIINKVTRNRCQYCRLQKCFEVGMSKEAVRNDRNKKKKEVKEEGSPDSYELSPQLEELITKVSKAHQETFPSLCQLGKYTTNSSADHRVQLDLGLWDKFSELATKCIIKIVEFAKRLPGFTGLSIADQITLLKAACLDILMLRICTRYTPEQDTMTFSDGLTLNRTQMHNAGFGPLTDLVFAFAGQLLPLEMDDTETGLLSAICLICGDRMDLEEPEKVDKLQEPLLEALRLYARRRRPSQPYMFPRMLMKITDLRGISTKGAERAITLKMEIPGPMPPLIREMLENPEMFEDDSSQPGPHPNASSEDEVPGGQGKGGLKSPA
From the text: as §1, §2

[6] = biological target: T2, RXRβ; assay: ligand binding assay; settings: read-out: RXR Bind Ki (nM) β
From the text: as §1, §2

[7] = biological target: T6, RXRα (Homo sapiens, UniProt P19793); assay: ligand binding assay
T6 sequence (P19793 1-462): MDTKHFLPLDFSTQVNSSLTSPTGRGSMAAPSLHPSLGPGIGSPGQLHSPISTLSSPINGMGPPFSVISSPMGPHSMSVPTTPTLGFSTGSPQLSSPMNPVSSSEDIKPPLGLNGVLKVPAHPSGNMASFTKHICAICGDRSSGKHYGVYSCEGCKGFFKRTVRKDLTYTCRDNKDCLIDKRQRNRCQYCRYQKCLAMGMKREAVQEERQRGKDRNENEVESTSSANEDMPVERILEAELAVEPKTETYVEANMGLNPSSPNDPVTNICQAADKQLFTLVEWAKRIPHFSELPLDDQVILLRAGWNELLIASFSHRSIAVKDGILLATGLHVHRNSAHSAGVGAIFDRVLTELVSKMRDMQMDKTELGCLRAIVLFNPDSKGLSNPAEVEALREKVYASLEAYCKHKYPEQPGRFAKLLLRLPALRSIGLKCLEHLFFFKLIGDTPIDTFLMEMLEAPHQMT
From the text: as §1, §2

[8] = biological target: T6, RXRα; assay: holoreceptor transactivation assay
From the text: as §1, §2

- EC50 ([1]; NA = Not Active, read-out: RAR Trans. EC50 (nM) α): 0.5 nM
- Emax ([1]; relative to 10^−6 M ATRA, read-out: % efficacy, RAR Trans. α): 10%
- EC50 ([2]; NA = Not Active, read-out: RXR Trans. EC50 (nM) β): 4 nM
- % efficacy, RXR Trans. β ([2]; relative to 10^−6 M AGN 194204): (84) %
- EC50 ([3]; NA = Not Active, read-out: RXR Trans. EC50 (nM) Y): 0.5 nM
- % efficacy, RXR Trans. Y ([3]; relative to 10^−6 M AGN 194204): (90) %
- Ki [4]: 1300 nM
- Ki [5]: 4000 nM
- Ki [6]: 30 nM
- Ki [7]: 7 nM
- EC50 [8]: 0.3 nM
- Emax ([8]; read-out: % efficacy, RXR Trans. α): 85%
Structure (SMILES): CCN(c1ccc(C(=O)O)cc1)c1cc2c(cc1C)C(C)(C)CC=C2C(C)(C)C [Compound 26, 4-[Ethyl(8-t-butyl-3,5,5-trimethyl-5,6-dihydronaphthalen-2-yl)amino]benzoic acid]
